Measurements published in US20030119733A1, “Compositions and methods for inhibiting hepatocyte invasion by malarial sporozoites” (New York University, priority 1992, published 2003).
“And” between values parts separate entries of the source, which are not always exact repeats. Equal entries are not always repeated. Where two headings read alike, the source gives them in different places. Where no end group is shown, it is not given here.

Key:
[1] = system: binding of CS27IVC to liver sections; experiment: Peptide inhibition of CS27IVC binding to frozen liver sections; parameters: species or system rat; details: peptide preincubation, up to 500 μg/ml
Experimental: The procedure was carried out essentially as described by Dukor P. et al., Proc. Natl. Acad. Sci. USA 67:991-997, 1970 and Imai Y. et al., J. Cell. Biol. 111:1225-1232, 1990. Rats were euthanized with CO2. Small pieces of the liver, spleen, heart, brain and lung were removed, snap frozen in liquid nitrogen, embedded in Tissue Tek O.C.T. (Miles, Inc., Naperville, Ill.), and cut into 5 μm sections. Sections were dried for 30 min., fixed for 10 min. in 4% paraformaldehyde, rinsed three times with phosphate-buffered saline (PBS), and either used immediately or stored at 4° C. in 1% BSA, 0.5% Tween, PBS (BSA/TPBS). After blocking with 100 mM glycine (pH 7.2) and with BSA/TPBS, the sections were sequentially incubated at 37° C. with recombinant proteins for 1 hr, 10 μg/ml MAb 2A10 for 45 min., and rat anti-mouse immunoglobulin conjugated to fluorescein isothiocyanate (Boehringer Mannheim, Indianapolis, Ind.) for 45 min. The slides were counterstained for 10 min. with 0.3% Evans blue, rinsed extensively in PBS, and finally observed under a fluorescence microscope. For peptide inhibition experiments, the sections were first incubated with the peptide at various concentrations in BSA/TPBS for 1 hour at 37° C., washed six times with BSA/TPBS, and then stained with 2.5 μg/ml CS recombinant protein as described above. In a few experiments, the tissues were fixed for 10 min. with methanol, acetone, or 4% paraformaldehyde containing 0.5% glutaraldehyde.

[2] = system: P. berghei sporozoites; format: cell-based; details: for Number of EEF (Mean ± SD): schizonts per 20 fields
Experimental: Assays were conducted according to the methods described by Hollingdale, M. R. et al.. Science 213:1021-1022, 1981. and Sinden, R. E., WHO Bulletin MOS (Suppl.) 68:115-125, 1990. HepG2 cells were plated in FCS-MEM at a density of 0.5×10^6 cells/ml in 8-chamber slides (4808 Lab-tek, Naperville, Ill.) 24 hr. before each experiment. […] For antibody inhibition experiments, sporozoites were preincubated in FCS-MEM alone, or FCS-MEM containing anti-Region II IgG, or with preimmune sera IgG for 30 min. at 4° C. Sporozoites (5×10^4), in a volume of 100 μl, were added to each well. The medium was replenished after 2 hr. and changed after 18 and 28 hr. Each point was performed in quadruplicate. In experiments designed to evaluate the toxicity of the peptides and antisera, sporozoites were first incubated with the HepG2 cells for 2 hr in FCS-MEM. FCS-MEM containing the peptide at a concentration of 250 μg/ml (or the IgGs at a concentration of 700 μg/ml) was then added to the cultures, and incubation proceeded for two additional hours. As above, FCS-MEM was changed after 18 and 28 hr. All cultures were fixed with cold methanol containing 0.3% H2O2 after 48 hr. […] The number of exoerythrocytic forms in 20 fields was counted in a double-blind fashion under a 20× light microscope objective.
The number of exoerythrocytic forms (“EEF”) of the parasite that developed in the HepG2 cells were counted two days later. […] In Table 2, “Number of EEF” represents the average number of schizonts counted per 20 fields under 20-times magnification of a light microscope in quadruplicate wells; P values were calculated by one-way analysis of variances corrected by the Bonferroni method using the commercially available computer program GraphPAD Instat, version 1.14, copyright 1990. […]

[3] = system: binding of CSFZ(Cys) to HepG2 cells; experiment: Inhibition of CS binding to HepG2 cells by glycosaminoglycans; parameters: species or system human; details: preincubated with 5 μg/ml CSFZ(Cys); FIG. 9
Experimental: 10^5 HepG2 cells were deposited in 96-well Removawell tissue culture plates and allowed to grow overnight in MEM (Gibco) containing 10% FCS, 1 mM L-glutamine (Gibco), 3 mg/ml glucose (Sigma) and 1× non-essential amino acids (Gibco). The HepG2 cells were fixed with 4% paraformaldehyde in TBS (50 mM Tris-HCl, pH 7.5, 137 mM NaCl, 2 mM KCl), were washed 3 times with TBS, and were stored at 4° C. in BSA/TBS until use. CSFZ(Cys) at 5 μg/ml was incubated with increasing amounts of the presumed inhibitors at 37° C. for 15 min. Fifty μl of these mixtures were added to the cells, incubated for 1 hr at 37° C., washed 3× with TBS/0.05% Tween and then sequentially incubated with 50 μl of mAb 2A10 at a concentration of 10 μg/ml in TBS/BSA buffer for 30 min at 37° C., and 1:5000 dilution of goat anti-mouse IgG conjugated to alkaline phosphatase (Boehringer) for 30 minutes. […] After 15 minutes, the fluorescence was measured in a Fluoroskan II plate reader (ICN).
Proteoglycans were preincubated with 5 μg/ml of CSFZ(Cys) and then were added to paraformaldehyde-fixed HepG2 cells. […] Each point represents the mean of triplicates. Percent inhibition was calculated by comparison to CSFZ(Cys) preincubated in medium alone.

[4] = system: heparan sulfate proteoglycans (HSPG); experiment: CS/proteoglycan co-immunoprecipitation; format: binding, human; details: for effect on co-immunoprecipitation of the CS receptor by CSFZ(Cys): 100 μg/ml added to 35SO4-labeled HepG2 cell extracts; for effect on co-immunoprecipitation of purified proteoglycans by CSFZ(Cys): purified trypsin-released HepG2 proteoglycan, FIG. 17
Experimental: All extracts and supernatants were first precleared with normal rabbit serum and Staph A cells. Then 32 μg/ml of CSFZ(Cys) or 64 μg/ml of CS27IVC, Falc-2 or Falc-1 were added for 30 minutes, followed by 10.8 μg/ml mAb 2A10 for 30 minutes, and 1% Staph A cells (final concentrations). The suspensions were shaken for 1 to 5 hours at 4° C. The Staph A cells were washed 3 times with the lysis buffer A, 2 times with lysis buffer B (10 mM Tris-HCl, pH 7.2, containing 100 mM NaCl and 0.5% NP40), 1 time with 50 mM Tris-HCl, ph 7.2, and were processed in this buffer for electrophoresis under reducing and non-reducing conditions.
Extracts of cells metabolically labeled with ^35SO4 were incubated for 30 minutes at 4° C. with 32 μg/ml of recombinant CSFZ(Cys) or 64 μg/ml Falc-1, and were immunoprecipitated with mAb 2A10 and Staph A cells. […] Immunoprecipitation with Falc-1 was negative. The SDS-PAGE patterns of the total lysate of HepG2 cells, and of the molecules co-immunoprecipitated with CSFZ(Cys) resembled the corresponding liver SDS-PAGE patterns. In kidney lysates, CSFZ(Cys) selectively immunoprecipitated a band of slightly lower molecular weight than the total kidney sulfated molecules.
Sub-confluent HepG2 cells were incubated with various concentrations of trypsin for 5 minutes at 4° C. […] Independently of the trypsin concentration, about 80% of the released HSPG was co-immunoprecipitated by 32 μg/ml CSFZ(Cys) and 10.8 μg/ml mAb 2A10. Under the same conditions, Falc-1 was negative.
^35SO4-labeled trypsin-released proteoglycan (total supernatant) was precipitated by CSFZ(Cys) (32 μg/ml), Falc-2 (64 μg/ml), CS27IVC (64 μg/ml) and Falc-1 (64 μg/ml). The labeled molecules were incubated with CSFZ(Cys), CS27IVC, and Falc-2 at equivalent concentrations of Region II+, and co-immunoprecipitated with the mAb 2A10. CSFZ(Cys), lacking most of the repeat region, precipitated up to 86% of the total sulfate-labeled proteoglycans (see FIG. 14), while CS27IVC and Falc-2 precipitated only 18% and 6% of the counts, respectively. Falc-1, which lacks Region II+, was negative.
Subconfluent sulfate-labeled HepG2 cells were incubated with 20 μg/ml trypsin for 5 minutes at 4° C., and the supernatants were loaded onto an anion exchange chromatography Pharmacia mono-Q column. These were eluted with a 0 to 2 M NaCl gradient in the presence of 7 M urea. […] Protein was not detectable in the labeled peaks. One ml fractions were collected and counted.

[5] = system: P. berghei sporozoites; experiment: Infection assay of HepG2 cells with polymers; format: cell-based; details: for effect on sporozoite invasion: present during invasion, 5-50 μg/ml; for invasion of hepatocytes by sporozoites in vitro: no conditions given
Experimental: Infection assay: Semiconfluent monolayers of HepG2 cells were grown in 10% FCS/MEM on 8 chamber slides (#4808 Lab-tek -Naperville, Ill.) for 24 hours prior to each experiment. Sporozoites were pre-incubated in media alone or with the various polymers for 15 minutes at 4° C. 5×10^4 sporozoites, in a volume of 10 μl, were added per chamber. After 4 hours of incubation at 37° C., the medium containing the sporozoites was gently aspirated, and 0.5 ml MEM/10% FCS was added. Fresh medium was added at 18 hours and 28 hours, and then cells were fixed with methanol containing 0.3% H2O2 at 48 hours. After fixation, the wells were blocked with 10% FCS/PBS and were incubated with 10 μg/ml of mAb 2E6. Binding of the mAb was detected with a polyclonal goat anti-mouse Ig conjugated to horseradish peroxidase. […] The parasites in each well are counted under a 40× light microscope objective.
The cells were fixed and stained with mAb 2E6, followed by goat-anti-mouse linked to horseradish peroxidase. Numbers represent schizonts counted/20 fields under 40× magnification in a light microscope.

[6] = system: Vivax-2 binding to sulfatide; experiment: Inhibition of binding of Vivax-2 to sulfatide; parameters: species or system P. vivax
Experimental: (§1) Solid phase binding assays: Thirty μl of lipids or steroids dissolved in methanol (20-250 μg/ml) were dried into wells of microassay plates (Cat.# 3911—Falcon—Oxnard, Calif.). The plates were then blocked with 1% BSA/PBS pH 7.4 (BSA/PBS) for 30 minutes. Wells were incubated with recombinant protein (or with parasite extract) in PBS/BSA for 1 hour, washed 3 times with BSA/PBS, incubated for 1 hour with monoclonal antibodies 2F2 or 2A10 in BSA/PBS, washed 3 times, and then incubated with (10^5 cpm/well) ^125I protein A (Amersham Corp., Arlington Hts., Ill.). In the case of the P. berghei CS protein, wells were incubated with ^125I labelled mAb 3D11. Wells were washed again and the bound radioactive protein was counted in an LKB gamma-counter (model #1260, Pharmacia, Inc., Gaithersburg, Md.). For inhibition assays, the recombinant proteins were mixed with dilutions of the various polymers in BSA/PBS, the mixture was loaded into the wells of the microtiter plates, and the binding assay performed as above. See also, Roberts, et al. J. Biol. Chem. 260:9405-9411, 1985.

[7] = system: Vivax-2 binding to cholesterol-sulfate; experiment: Inhibition of binding of Vivax-2 to cholesterol-sulfate; parameters: species or system P. vivax
Experimental: as §1

[8] = target: T1, P.berghei CS protein binding to sulfatide (Plasmodium berghei, UniProt P06915); experiment: Inhibition of binding of P.berghei CS protein to sulfatide
T1 construct: as well as the native P. berghei CS protein; endogenous in cells; host or cells: P. berghei sporozoites (extract, 35,000 sporozoite equivalents/well)
Experimental: as §1

[9] = target: hepatocyte plasma membrane receptor for the circumsporozoite protein on human hepatocytes and HepG2; experiment: competition: fixed HepG2 cells preincubated with peptide, washed, then CSFZ (Cys) 2.5 µg/ml (competitor); cell ELISA
[10] = peptide 500 μg/ml present during invasion

PGSANKPKDELDYANIEKK [Pf4]
inhibition of the binding of CS27IVC to liver sections [1]: failed to inhibit
Number of EEF (Mean ± SD) ([2]; peptide 250 μg/ml present during invasion): 122.5 ± 13.4 and 123.7 ± 20.1 and 105.0 ± 12.5
Percentage of Inhibition [2, 10]: 0.0%
Number of EEF (Mean ± SD) [2, 10]: 375.2 ± 52

chondroitin sulfate
inhibition of CS binding to HepG2 cells [3]: not
effect on co-immunoprecipitation of the CS receptor by CSFZ(Cys) [4]: no effect
effect on co-immunoprecipitation of purified proteoglycans by CSFZ(Cys) [4]: not

dextran
effect on sporozoite invasion [5]: no effect
inhibition of CS binding to HepG2 cells [3]: not
% INHIBITION ([6]; inhibitor 1 mg/ml): 0%
% INHIBITION ([7]; inhibitor 10 mg/ml): 0%

dextran-sulfate
% INHIBITION ([8]; inhibitor 1 μg/ml): 31.2%
% INHIBITION ([8]; inhibitor 10 μg/ml): 63%
% INHIBITION ([8]; inhibitor 100 μg/ml): 79%
development of the liver stages ([5]; added after 4 hours of contact, after invasion): not affected
invasion of hepatocytes by sporozoites in vitro [5]: inhibited
effect on sporozoite invasion [5]: inhibited invasion in a dose-dependent fashion
inhibition of CS binding to HepG2 cells [3]: inhibited
% INHIBITION ([6]; inhibitor 1 μg/ml): 19%
% INHIBITION ([6]; inhibitor 10 μg/ml): 70.2%
% INHIBITION ([7]; inhibitor 1 μg/ml): 12.2%
% INHIBITION ([7]; inhibitor 10 μg/ml): 21.1%
% INHIBITION ([7]; inhibitor 100 μg/ml): 25.6%
% INHIBITION ([7]; inhibitor 1 mg/ml): 33%
% INHIBITION ([7]; inhibitor 10 mg/ml): 40.5%
% INHIBITION ([7]; inhibitor 10 mg/ml, listed as dextran-sulfate): less than 50%

fucoidan
invasion of hepatocytes by sporozoites in vitro [5]: inhibited
inhibition of CS binding to HepG2 cells [3]: inhibited

heparan-sulfate
effect on sporozoite invasion [5]: no effect
inhibition of CS binding to HepG2 cells [3]: inhibited
effect on binding to sulfatide ([6]; 1 mg/ml): no effect
% INHIBITION ([6]; inhibitor 1 mg/ml): 0%
% INHIBITION ([7]; inhibitor 10 mg/ml): 0%

heparin
invasion of hepatocytes by sporozoites in vitro [5]: inhibited
inhibition of CS binding to HepG2 cells [3]: inhibited
% INHIBITION ([6]; inhibitor 100 μg/ml): 0%
effect on co-immunoprecipitation of the CS receptor by CSFZ(Cys) [4]: prevented
effect on co-immunoprecipitation of purified proteoglycans by CSFZ(Cys) [4]: inhibited co-immunoprecipitation
% INHIBITION ([7]; inhibitor 1 mg/ml): 0%
% INHIBITION ([7]; inhibitor 10 mg/ml): 31.2%

CGNGIQVRIKPGSANKPKDE [Pf2]
IC50 [9]: 75 µg/mL
